In BindingDB's records for doi:10.7270/Q2DV1H7P (Burnham Center For Chemical Genomics, 2009):

Biological target: Runt-related transcription factor 1 (Homo sapiens, UniProt Q01196)
Experiment: inhibitors of RUNX1 Runt–CBFb-SMMHC binding, primary screen, biochemical, FRET, Cerulean-Runt, Venus-CBFb-SMMHC, uHTS (AID 1434)
Details: pH 7.4; 23 °C

Sequence of Runt-related transcription factor 1 (Q01196 whole entry): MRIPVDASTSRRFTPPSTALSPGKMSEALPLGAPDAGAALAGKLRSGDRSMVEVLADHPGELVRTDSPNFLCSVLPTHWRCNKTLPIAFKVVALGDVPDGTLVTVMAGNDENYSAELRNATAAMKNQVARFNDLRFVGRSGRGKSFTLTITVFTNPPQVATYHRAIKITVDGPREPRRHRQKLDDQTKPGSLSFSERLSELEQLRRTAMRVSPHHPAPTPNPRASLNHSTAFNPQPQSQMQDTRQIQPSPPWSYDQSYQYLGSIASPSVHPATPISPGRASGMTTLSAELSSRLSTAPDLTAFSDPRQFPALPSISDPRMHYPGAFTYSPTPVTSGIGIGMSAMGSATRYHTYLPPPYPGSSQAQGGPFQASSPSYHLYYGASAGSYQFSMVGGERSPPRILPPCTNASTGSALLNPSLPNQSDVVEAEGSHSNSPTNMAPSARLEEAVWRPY

| IC50 | SMILES |
| --- | --- |
| 10.1 µM | Cc1ccc(C)c(-c2csc(N=NC(C)c3cc4c(ccc5ccccc54)oc3=O)n2)c1 (stereo not drawn) [MLS000559785] |
| 100 µM | CN1c2ccsc2C(=O)C(C(=S)Nc2ccc(F)c(Cl)c2)S1(=O)=O (stereo not drawn) |
| 100 µM | Cc1cc2c(c(=O)n1CCc1ccccc1)C(c1ccco1)C(C#N)C(=N)O2 (stereo not drawn) [SMR000149533] |
